From patent publication US20090264342A1, “COMPOSITIONS AND METHODS FOR ANTIBIOTIC POTENTIATION AND DRUG DISCOVERY” (priority 2006, published 2009)

Columns and labels:
E. coli MG1655 = assay: Survival assay (CFU) of E. coli MG1655 recA+ / recA− after exposure to Nor; assay type: cell-based; settings: wild type background, 3 hours of exposure to Nor 0.1 μg/mL
Protocol: The ability of these fours strains to survive exposure to Nor was then tested. The experiment was performed as follows. Cultures were grown to early log phase in LB at 37° C. with shaking. At the 0 time point Nor was added to the cultures to a final concentration of 0.1 μg/mL. This concentration of Nor is just below the MIC for strain MG1655 under these growth conditions. Samples of the cells were collected and washed in PBS at 0, 30, 90 and 180 min time points. The number of viable cells was determined by plating the cells from each time point on LB agar and counting colonies. The CFU counts were normalized based on the time 0 time point inoculum for each culture (i.e., the CFU count obtained from the 0 time point inoculum was taken to represent 100% survival) and the log % survival was plotted (FIG. 3).
The recA deletion caused a 10,000 fold increase in quinolone sensitivity in a wild type background after 3 hours of exposure to Nor. […] In addition, inhibiting the expression and/or activity of E. coli RecA (or its homolog in other bacteria) is expected to render bacterial strains that have acquired resistance to quinolones (e.g., due to mutation in one or more subunits of the bacterial gyrase or topoisomerase IV and/or due to increased copy number of a gene encoding one of these polypeptides) sensitive once again to these compounds.

wild type E. coli = assay: Growth of wild type E. coli in the presence of quinolone (OD600); assay type: cell-based
Text: Each deletion strain was constructed by replacing the chromosomal copy of the relevant gene in a wild type E. coli strain (K-12) with a selectable antibiotic resistance gene, essentially as described, to create a precise gene deletion (Datsenko, K. A. and Wanner, B. L., “One-step inactivation of chromosomal genes in Escherichia coli K-12 using PCR products”, Proc Natl Acad Sci USA, 97, 6640-6645, […]); Baba, T., Ara, T., Okumura, Y., iki Hasegawa, M., Takai, Y., Baba, M., Oshima, T., Tomita, M., Wanner, B. and Mori, H. (2003) Systematic construction of single gene deletion mutants in Escherichia coli K-12 (in preparation) and see also the web site at ecoli.aist-nara.ac.jp/gb5/Resources/deletion/deletion.html).
For each mutant, the ratio of growth of the mutant in the presence of a sublethal concentration of quinolone to growth of the mutant in the absence of quinolone was calculated after 12 hours of growth at 37° C., based on OD600 measurements. […]

[1] = test system: recA promoter (prec::GFP) in MG1655; assay: Cell-based recA promoter::GFP reporter assay; parameters: species or system E. coli; settings: recA+ bacteria with reporter construct, in the presence of norfloxacin
Text: As discussed above, the recA promoter is induced when RecA becomes activated as a result of exposure to DNA damaging agents. The present Applicants hypothesized that exposure to a quinolone may have a similar effect on the recA promoter and that this effect could be exploited to develop a cell-based assay for inhibitors of RecA. A low copy reporter plasmid was used in which the recA promoter controls transcription of the mRNA encoding green fluorescent protein (GFP). The plasmid, referred to herein as prec::GFP, has been previously described (Ronen, 2002). See also Kuang, 2004. prec::GFP contains 2821707-2821893 of the E. coli MG1655 genome (numbering based on the sequenced E. coli genome as reported in Blattner, F. R., et al., Science, 277, pp. 1453-1474, 1997) cloned upstream of a promoterless GFPmut3 gene in a low copy pSC101 origin plasmid as described (Kalir, S., et al., Science, 292, pp. 2080-2083, 2001).
The prec::GFP plasmid was introduced into MG1655 and MG1655 recA null strains and measured the fluorescence emitted by GFP in the presence or absence of quinolone as compared with background fluorescence detected from cultures of MG1655 lacking the plasmid. Briefly cells of these three strains were grown to early log phase in LB at 37° C. with shaking. […] After 60 minutes, fluorescence due to GFP expression from the reporter plasmid was measured using a spectrophotometer.

[2] = test system: S. aureus RN4220 and RN4220 recA−; assay: Survival assay in the RN4220 background after exposure to Nor; assay type: cell-based; settings: RN4220 recA− vs RN4220, 3 hours of exposure to Nor 0.5 μg/mL
Protocol: The survival ability of RN4220 and RN4220 recA^− following exposure to Nor was then tested as described in Example 2 for E. coli strains. The recA null mutant and parental strains (RN4220 recA^− and RN4220, respectively) were grown to early log phase in LB at 37° C. with shaking. At the 0 time point Nor was added to the cultures to a final concentration of 0.5 μg/mL, which is just below the MIC for wild type cells (RN4220). Samples of the cells were collected and washed in PBS at 0, 30, 90 and 180 minutes time points. The number of viable cells was determined by plating the cells on LB from each time point and counting colonies. The CFU counts were normalized based on the time 0 time point inoculum for each culture (i.e., the CFU count obtained from the 0 time point inoculum was taken to represent 100% survival) and the log % survival was plotted (FIG. 5).
It was concluded that recA is essential for survival in the presence of quinolones (FIG. 5). As in E. coli, recA deletion causes 10,000× increase in quinolone sensitivity compared to the parental strain after 3 hours of exposure to Nor.

How did the “increase in quinolone sensitivity caused by recA deletion” value (E. coli MG1655) turn out when `CCn1cc(C(=O)O)c(=O)c2cc(F)c(N3CCNCC3)cc21` [Nor, norfloxacin] was run?
The value was 10,000 fold.

What about the “bacterial growth, % of wild type levels” value (wild type E. coli; 0.05 μg/mL Nor (sublethal concentration)) of the same molecule?
The value was 80%.

And the “concentration that fully inhibits growth of wild type E. coli (lethal concentration)” value (wild type E. coli; wild type E. coli)?
Its value is 0.1 µg/mL.

What about the “transcription of the recA:GFP reporter gene” value [1] of the same molecule?
The value was “increased transcription of the reporter gene”.

What about the “increase in quinolone sensitivity caused by recA deletion compared to parental strain” value [2] of the same molecule?
Its value is 10,000 ×.
